In assay [1] the target is T1, Muscarinic acetylcholine receptor M4 (Mus musculus, UniProt P32211).
T1 sequence (P32211 whole entry): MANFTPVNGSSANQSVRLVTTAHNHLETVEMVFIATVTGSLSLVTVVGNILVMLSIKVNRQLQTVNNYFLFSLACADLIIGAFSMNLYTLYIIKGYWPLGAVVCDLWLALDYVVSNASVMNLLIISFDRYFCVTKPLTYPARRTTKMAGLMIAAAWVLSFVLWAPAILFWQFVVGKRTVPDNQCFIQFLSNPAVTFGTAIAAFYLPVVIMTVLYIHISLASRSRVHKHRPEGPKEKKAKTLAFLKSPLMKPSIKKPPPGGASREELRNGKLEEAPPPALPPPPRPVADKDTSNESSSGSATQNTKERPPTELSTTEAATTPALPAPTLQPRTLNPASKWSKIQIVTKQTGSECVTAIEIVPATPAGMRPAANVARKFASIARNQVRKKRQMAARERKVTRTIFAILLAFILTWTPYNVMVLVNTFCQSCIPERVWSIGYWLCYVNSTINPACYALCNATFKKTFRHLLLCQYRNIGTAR
Nature of the assay: Potency assessed to inhibit cAMP levels in N1E-115 neuroblastoma cells, for blocking oxotremorine-M in functional assay for Muscarinic acetylcholine receptor M4. Type of assay: cell-based.

Assay [2] concerns the target T2, Muscarinic acetylcholine receptor M4 (Rattus norvegicus, UniProt P08485).
T2 sequence (P08485 whole entry): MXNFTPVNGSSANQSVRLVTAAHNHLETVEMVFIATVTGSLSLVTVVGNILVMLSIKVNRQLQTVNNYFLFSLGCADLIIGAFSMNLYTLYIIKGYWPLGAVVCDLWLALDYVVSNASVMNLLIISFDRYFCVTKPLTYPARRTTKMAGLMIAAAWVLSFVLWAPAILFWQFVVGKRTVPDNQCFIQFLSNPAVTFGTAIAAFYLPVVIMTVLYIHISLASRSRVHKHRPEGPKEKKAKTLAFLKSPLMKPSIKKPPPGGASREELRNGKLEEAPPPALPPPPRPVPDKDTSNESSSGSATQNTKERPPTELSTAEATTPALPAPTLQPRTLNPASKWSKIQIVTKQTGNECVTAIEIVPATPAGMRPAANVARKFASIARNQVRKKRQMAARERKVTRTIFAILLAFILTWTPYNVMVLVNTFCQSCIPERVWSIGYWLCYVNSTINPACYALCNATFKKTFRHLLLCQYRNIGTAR
As to the kind of experiment: Potency assessed to inhibit cAMP levels in rat striatum, for blocking oxotremorine-M, in functional assay for Muscarinic acetylcholine receptor M4. The assay is classed as tissue-based. In general terms: cAMP levels reflect the balance of adenylyl cyclase and phosphodiesterase activity.

Assay [3] has as its target T3, Muscarinic acetylcholine receptor M2 (Rattus norvegicus, UniProt P10980).
T3 sequence (P10980 whole entry): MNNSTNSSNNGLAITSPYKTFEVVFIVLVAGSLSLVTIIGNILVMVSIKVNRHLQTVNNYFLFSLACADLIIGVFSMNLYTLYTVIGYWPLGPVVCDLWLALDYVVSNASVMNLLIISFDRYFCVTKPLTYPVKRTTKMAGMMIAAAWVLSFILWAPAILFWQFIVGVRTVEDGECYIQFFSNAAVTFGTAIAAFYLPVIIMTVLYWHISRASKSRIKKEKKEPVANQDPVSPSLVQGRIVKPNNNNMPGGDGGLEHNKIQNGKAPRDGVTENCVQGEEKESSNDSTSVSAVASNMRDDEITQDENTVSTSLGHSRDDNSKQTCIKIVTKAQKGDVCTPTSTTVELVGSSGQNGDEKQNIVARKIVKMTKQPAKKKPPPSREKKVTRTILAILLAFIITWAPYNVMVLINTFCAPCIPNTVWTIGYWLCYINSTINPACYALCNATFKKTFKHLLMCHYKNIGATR
Nature of the assay: Dissociation constant for the blocking of brainstem muscarinic M2 receptor was reported. Type of assay: tissue-based.

Assay [4] deals with T3, Muscarinic acetylcholine receptor M2. As to the kind of experiment: Dissociation constant for the blocking of cardiac muscarinic M2 receptor was reported. Also on record: species or system Heart.
Assay [5] has the same target. As to the kind of experiment: Dissociation constant for the blocking of heart muscarinic M2 receptor was reported.
The species named for assay [6] is Rattus norvegicus. As to the kind of experiment: Ability to reverse oxotremorine-M mediated inhibition of evoked acetylcholine release from hippocampal tissue. The assay is classed as functional, Hippocampus.
The target in assay [7] is T4, Muscarinic acetylcholine receptor M1 (Homo sapiens, UniProt P11229).
T4 sequence (P11229 whole entry): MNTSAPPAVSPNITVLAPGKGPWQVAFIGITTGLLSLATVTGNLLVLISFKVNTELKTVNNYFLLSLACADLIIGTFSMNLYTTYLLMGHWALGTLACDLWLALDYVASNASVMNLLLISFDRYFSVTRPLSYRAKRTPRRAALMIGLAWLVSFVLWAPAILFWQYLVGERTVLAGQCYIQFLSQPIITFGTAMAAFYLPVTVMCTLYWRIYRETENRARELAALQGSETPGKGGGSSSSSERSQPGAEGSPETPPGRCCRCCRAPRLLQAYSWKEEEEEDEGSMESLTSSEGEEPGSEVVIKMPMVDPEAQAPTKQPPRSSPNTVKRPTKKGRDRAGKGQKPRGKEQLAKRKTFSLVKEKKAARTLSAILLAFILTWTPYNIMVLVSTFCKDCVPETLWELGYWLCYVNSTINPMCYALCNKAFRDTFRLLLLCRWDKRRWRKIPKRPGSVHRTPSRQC
As to the kind of experiment: Dissociation constant for human Muscarinic acetylcholine receptor M1 was determined.

Assay [8] concerns the target T5, Muscarinic acetylcholine receptor M2 (Homo sapiens, UniProt P08172).
T5 sequence (P08172 whole entry): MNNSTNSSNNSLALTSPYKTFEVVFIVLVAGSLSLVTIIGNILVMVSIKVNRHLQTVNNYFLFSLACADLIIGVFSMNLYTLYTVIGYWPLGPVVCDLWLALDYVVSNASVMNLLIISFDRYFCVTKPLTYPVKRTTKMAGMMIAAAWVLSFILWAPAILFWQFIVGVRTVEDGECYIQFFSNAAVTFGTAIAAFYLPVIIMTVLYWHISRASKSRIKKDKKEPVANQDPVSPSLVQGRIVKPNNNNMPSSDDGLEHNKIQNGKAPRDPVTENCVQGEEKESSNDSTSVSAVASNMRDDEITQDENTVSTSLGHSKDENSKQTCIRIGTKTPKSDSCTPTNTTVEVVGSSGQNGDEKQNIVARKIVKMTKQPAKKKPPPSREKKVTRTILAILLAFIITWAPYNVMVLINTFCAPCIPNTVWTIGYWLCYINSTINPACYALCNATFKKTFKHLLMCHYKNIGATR
Nature of the assay: Dissociation constant for human Muscarinic acetylcholine receptor M2 was determined.

Experimental findings from ChEMBL document CHEMBL1126442 (Bioorg Med Chem Lett, 1992) are described below.

SMILES strings stand for the structures.

The Kd is the concentration at which binding is half-saturated. Regarding `C[C@@H]1OC(=O)[C@H]2C[C@H]3CCCC[C@@H]3[C@@H](/C=C/[C@H]3CCC[C@H](C)N3C)[C@@H]12` [HIMBACINE], the Kd in assay [1] stood at 11.3 nM; in assay [2], 5.4 nM; in assay [3], 4.6 nM; in assay [4], 3 nM; in assay [5], 6.9 nM; in assay [6], 8.5 nM.
With `C[C@@H]1OC(=O)C[C@H]1C/C=C/[C@H]1CCCCN1C`, the Kd in assay [7] came to 9700 nM; in assay [8] it was 4400 nM; in assay [3] it was 1210 nM.
